Measurements reported in patent US20240342292A1, “Compounds for the Degradation of EGFR Kinase” (BeiGene Switzerland GmbH, priority 2021, published 2024).

Assays:
Del19/T790M/C797S EGFR = assay: EGFR degradation HTRF assay in H1975-clone #28 (DTC) cells; assay type: cell-based; details: H1975 # 28 DTC (Del19/T790M/C797S), 16h treatment; for DC50: HTRF; for Dmax (%): maximum percentage of degradation
Source text: (§1) H1975-clone #28(Del19/T790M/C797S, or abbr: DTC), H1975-clone #23(Del19/C797S, or abbr: DC), H1975-clone #25(L858R/T790M/C797S, or abbr: LTC) and H1975-clone #8 (L858R/C797S, or abbr: LC). EGFR-Del19:T790M/C797S, EGFR-Del19/C797S, EGFR-L858R/T790M/C797S and EGFR-L858R/C797S were stably expressed in H1975 cell lines by lentivirus-mediated over-expression, respectively. The EGFR over-expressed cells then underwent knockout, in which the EGFR targeting sgRNA was designed to only target the endogenous EGFR copies and preserve the exogenous EGFR copies. Followed by the knockout, the edited H1975 cells were seeded in 96 well plates at the concentration of […], cultured for about 2 weeks to allow single clones formation. The formed clones were screened by DNA sequencing and whole exon sequencing analysis for the desired edition. H1975-clone #28, H1975-clone #23, H1975-clone #25 and H1975-clone #8 were finally confirmed as homozygous Del19/T790M/C797S EGFR, Dell9/C797S EGFR, L858R/T790M/C797S EGFR and L858R/C797S EGFR clones, respectively.
(§2) H1975-#25, H1975-#28, H1975-#23 and H1975-#8 cells are treated with compounds diluted in 0.2% DMSO cell culture medium on day 2, incubate for 16h, 37° C., 5% CO2. the final concentration of compounds in all assay is start with 10 uM, 5-fold dilution, total 8 doses were included.
(§3) After 16h treatment, add HTRF lysis buffer to each well; seal the plate and incubate 1 hour at room temperature on a plate shaker; Once the cells are lysed, 16 μL of cell lysate are transferred to a PE 384-well HTRF detection plate; 4 μL of pre-mixed HTRF antibodies are added to each well; Cover the plate with a plate sealer, spin 1000 rpm for 1 min, Incubate overnight at room temperature; Read on BMG PheraStar with HTRF protocol (337 nm-665 nm-620 nm).
(§4) The IC50 (DC50) value of a compound can be obtained by fitting the following equation
(§5) Y=Bottom+(TOP−Bottom)/(1+((IC50/X)^hillslope))
(§6) Wherein, X and Y are known values, and IC50, Hillslope, Top and Bottom are the parameters obtained by fitting with software. Y is the inhibition percentage (calculated from the equation), X is the concentration of the compound: IC50 is the concentration of the compound when the 50% inhibition is reached. The smaller the IC50 value is, the stronger the inhibitory ability of the compound is. Vice versa, the higher the IC50 value is, the weaker the ability the inhibitory ability of the compound is: Hillslope represents the slope of the fitted curve, generally around 1*; Bottom represents the minimum value of the curve obtained by data fitting, which is generally 0%±20%; Top represents the maximum value of the curve obtained by data fitting, which is generally 100%±20%. The experimental data were fitted by calculating and analyzing with Dotmatics data analysis software.

L858R/T790M/C797S EGFR = target: T1, L858R/T790M/C797S EGFR (Homo sapiens, UniProt P00533, C797S/L858R/T790M); assay: EGFR degradation HTRF assay in H1975-clone #25 (LTC) cells; assay type: cell-based; details: 16h treatment; for DC50: H1975 # 25-LTC (L858R/T790M/C797S), HTRF; for Dmax: NCI-H1975, H1975 # 25-LTC (L858R/T790M/C797S), maximum percentage of degradation
T1 construct: expressed in transfected cells; host or cells: H1975 clone #25 (lentiviral over-expression, endogenous EGFR knocked out by sgRNA)
T1 sequence (P00533 25-1210 T790M/C797S/L858R): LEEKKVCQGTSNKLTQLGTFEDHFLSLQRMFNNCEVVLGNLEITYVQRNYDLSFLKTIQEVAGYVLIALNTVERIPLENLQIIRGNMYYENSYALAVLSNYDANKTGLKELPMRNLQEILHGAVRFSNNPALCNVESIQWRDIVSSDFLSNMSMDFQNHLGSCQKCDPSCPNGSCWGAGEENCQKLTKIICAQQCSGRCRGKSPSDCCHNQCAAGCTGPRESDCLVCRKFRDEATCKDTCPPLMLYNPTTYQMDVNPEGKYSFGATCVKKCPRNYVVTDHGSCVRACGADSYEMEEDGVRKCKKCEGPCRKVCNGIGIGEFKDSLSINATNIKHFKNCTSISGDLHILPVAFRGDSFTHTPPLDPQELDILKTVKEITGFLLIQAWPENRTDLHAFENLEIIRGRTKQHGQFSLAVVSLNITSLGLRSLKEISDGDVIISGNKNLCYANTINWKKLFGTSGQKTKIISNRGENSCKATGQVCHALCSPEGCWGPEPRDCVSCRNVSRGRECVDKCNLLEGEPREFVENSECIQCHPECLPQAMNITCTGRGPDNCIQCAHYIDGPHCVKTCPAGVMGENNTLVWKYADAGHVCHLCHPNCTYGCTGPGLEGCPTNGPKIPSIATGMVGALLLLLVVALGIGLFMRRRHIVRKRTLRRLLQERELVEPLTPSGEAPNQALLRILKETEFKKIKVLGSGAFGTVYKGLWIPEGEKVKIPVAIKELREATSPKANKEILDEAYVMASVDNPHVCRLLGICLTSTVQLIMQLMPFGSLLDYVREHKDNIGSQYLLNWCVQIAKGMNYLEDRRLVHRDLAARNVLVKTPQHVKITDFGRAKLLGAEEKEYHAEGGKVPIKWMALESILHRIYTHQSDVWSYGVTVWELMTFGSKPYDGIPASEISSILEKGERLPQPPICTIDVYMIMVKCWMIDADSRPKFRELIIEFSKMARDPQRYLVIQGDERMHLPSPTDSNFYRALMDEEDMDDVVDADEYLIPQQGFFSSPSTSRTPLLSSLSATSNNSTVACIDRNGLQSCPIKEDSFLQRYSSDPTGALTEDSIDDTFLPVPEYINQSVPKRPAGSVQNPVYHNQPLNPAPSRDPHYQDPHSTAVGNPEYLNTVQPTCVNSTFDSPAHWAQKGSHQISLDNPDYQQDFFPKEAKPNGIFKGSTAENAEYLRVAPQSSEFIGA
Source text: as §1, §2, §3, §4, §5, §6

DC50 (Del19/T790M/C797S EGFR) [nM]	DC50 (L858R/T790M/C797S EGFR) [nM]	Dmax (L858R/T790M/C797S EGFR) [%]	Structure (SMILES)	Dmax (%) (Del19/T790M/C797S EGFR)
0.623	0.546	88	Cc1cc2cc(n1)-c1cnn(C)c1OCCC[C@@H](C)CN1/C(=N/C2=O)Nc2ccc(N3CCN(CCNc4cc(F)c([C@H]5CCC(=O)NC5=O)c(F)c4)CC3)cc21 (single isomer, unassigned) [Example 368]	80.06
0.794	2.51	89.8	Cc1cc2cc(n1)-c1cnn(C)c1OCCC[C@@H](C)CN1/C(=N/C2=O)Nc2ccc(N3CCN([C@H]4CCN(c5cc(F)c([C@H]6CCC(=O)NC6=O)c(F)c5)C[C@@H]4F)CC3)cc21 (single isomer, unassigned) [Example 424]	82.75
0.633	1.25	86.6	Cc1cc2cc(n1)-c1cnn(C)c1OCC[C@H]1C[C@@H]1CN1/C(=N/C2=O)Nc2ccc(N3CCN([C@H]4C[C@H](Nc5cc(F)c([C@H]6CCC(=O)NC6=O)c(F)c5)C4)CC3)cc21 (single isomer, unassigned) [Example 443]	78.26
1.3	2.1	89	Cc1cc2cc(n1)-c1cnn(C)c1OCCC[C@@H](C)CN1/C(=N/C2=O)Nc2ccc(N3CCN([C@H]4C[C@H](Nc5cc(F)c([C@H]6CCC(=O)NC6=O)c(F)c5)C4)CC3)cc21 (single isomer, unassigned) [Example 444]	82.11
0.629	0.431	89.6	Cc1cc2cc(n1)-c1cnn(C)c1OCCC[C@@H](C)CN1/C(=N/C2=O)Nc2ccc(N3CCN(C4CCN(c5cnc([C@H]6CCC(=O)NC6=O)c(F)c5)CC4)CC3=O)cc21 (single isomer, unassigned) [Example 460]	75.27
0.5	0.6	94.3	Cc1cc2cc(n1)-c1cnn(C)c1OCCC[C@@H](C)CN1/C(=N/C2=O)Nc2ccc(CN3CCC4(CC3)CCN(C(=O)C3CN(c5cc(F)c([C@H]6CCC(=O)NC6=O)c(F)c5)C3)CC4)cc21 [Example 12, (R)-3-(2,6-difluoro-4-(3-(9-(((R,E)-1^1,2^6,7-trimethyl-3-oxo-5^2,53-dihydro-1^1H,5^1H-11-oxa-4-aza-5(2,1)-benzo[d]imidazola-2(2,4)-pyridina-1(4,5)-pyrazolacycloundecaphane-5^6-yl)methyl)-3,9-diazaspiro[5.5]undecane-3-carbonyl)azetidin-1-yl)phenyl)piperidine-2,6-dione]	86.7
–	10.6	82.1	Cc1cc2cc(n1)-c1cnn(C)c1OCCC[C@@H](C)CN1/C(=C/C2=O)Nc2ccc(CN3CCC(N4CCC(c5cc(F)c([C@H]6CCC(=O)NC6=O)c(F)c5)CC4)CC3)cc21 [Example 16, (R)-3-(2,6-difluoro-4-(1′-(((R,E)-1^1,2^6,7-trimethyl-3-oxo-5^2,5^3-dihydro-1^1H,5^1H-11-oxa-4-aza-5(2,1)-benzo[d]imidazola-2(2,4)-pyridina-1(4,5)-pyrazolacycloundecaphane-5^6-yl)methyl)-[1,4′-bipiperidin]-4-yl)phenyl)piperidine-2,6-dione]	–
2.1	4.4	87.4	Cc1cc2cc(n1)-c1cnn(C)c1OCCC[C@@H](C)CN1/C(=N/C2=O)Nc2ccc(CN3CCC(N4CCN(C5CN(c6cc(F)c([C@H]7CCC(=O)NC7=O)c(F)c6)C5)CC4)CC3)cc21 [Example 18, (R)-3-(2,6-difluoro-4-(3-(4-(1-(((R,E)-1^1,2^6,7-trimethyl-3-oxo-5^2,5^3-dihydro-1^1H,5^1H-11-oxa-4-aza-5(2,1)-benzo[d]imidazola-2(2,4)-pyridina-1(4,5)-pyrazolacycloundecaphane-5^6-yl)methyl)piperidin-4-yl)piperazin-1-yl)azetidin-1-yl)phenyl)piperidine-2,6-dione]	75.8
–	2.7	77.8	Cc1cc2cc(n1)-c1cnn(C)c1OCCC[C@@H](C)CN1/C(=N/C2=O)Nc2ccc(CN3CCC4(CC3)CCN(CC3CCN(c5ccc6c(c5)CN(C5CCC(=O)NC5=O)C6=O)CC3)CC4)cc21 (stereo partly drawn) [Example 21, 3-(1-oxo-5-(4-((9-(((R,E)-1^1,2^6,7-trimethyl-3-oxo-5^2,5^3-dihydro-1^1H,5^1H-11-oxa-4-aza-5(2,1)-benzo[d]imidazola-2(2,4)-pyridina-1(4,5)-pyrazolacycloundecaphane-5^6-yl)methyl)-3,9-diazaspiro[5.5]undecan-3-yl)methyl)piperidin-1-yl)isoindolin-2-yl)piperidine-2,6-dione]	–
–	1.5	78.5	Cc1cc2cc(n1)-c1cnn(C)c1OCCC[C@@H](C)CN1/C(=N/C2=O)Nc2ccc(CN3CCN(C[C@@H]4CCN(c5cc(F)c([C@H]6CCC(=O)NC6=O)c(F)c5)C4)CC3)cc21 [Example 88, (R)-3-(2,6-difluoro-4-((S)-3-((4-(((R,E)-1^1,2^6,7-trimethyl-3-oxo-5^2,5^3-dihydro-1^1H,5^1H-1l-oxa-4-aza-5(2,1)-benzo[d]imidazola-2(2,4)-pyridina-1(4,5)-pyrazolacycloundecaphane-5^6-yl)methyl)piperazin-1-yl)methyl)pyrrolidin-1-yl)phenyl)piperidine-2,6-dione]	–
–	1.1	86.9	Cc1cc2cc(n1)-c1cnn(C)c1OCCC[C@@H](C)CN1/C(=N/C2=O)Nc2ccc(CN3CCN(C[C@H]4CCN(c5cc(F)c([C@H]6CCC(=O)NC6=O)c(F)c5)C4)CC3)cc21 [Example 90, (R)-3-(2,6-difluoro-4-((R)-3-((4-(((R,E)-1^1,2^6,7-trimethyl-3-oxo-5^2,5^3-dihydro-^1H,5^1H-11-oxa-4-aza-5(2,1)-benzo[d]imidazola-2(2,4)-pyridina-1(4,5)-pyrazolacycloundecaphane-5^6-yl)methyl)piperazin-1-yl)methyl)pyrrolidin-1-yl)phenyl)piperidine-2,6-dione]	–
–	1.9	92.7	Cc1cc2cc(n1)-c1cnn(C)c1OCCC[C@@H](C)CN1/C(=N/C2=O)Nc2ccc(CN3CC4(CCN(CCc5cc(F)c([C@H]6CCC(=O)NC6=O)c(F)c5)CC4)C3)cc21 [Example 93, (R)-3-(2,6-difluoro-4-(2-(2-(((R,E)-1^1,2^6,7-trimethyl-3-oxo-5^2,5^3-dihydro-1^1H,5^1H-11-oxa-4-aza-5(2,1)-benzo[d]imidazola-2(2,4)-pyridina-1(4,5)-pyrazolacycloundecaphane-5^6-yl)methyl)-2,7-diazaspiro[3.5]nonan-7-yl)ethyl)phenyl)piperidine-2,6-dione]	–
–	0.6	82.5	Cc1cc2cc(n1)-c1cnn(C)c1OCCC[C@@H](C)CN1/C(=N/C2=O)Nc2ccc(CN3CCN(CCc4cc(F)c([C@H]5CCC(=O)NC5=O)c(F)c4)[C@H](C)C3)cc21 [Example 107, (R)-3-(2,6-difluoro-4-(2-((R)-2-methyl-4-(((R,E)-1^1,2^6,7-trimethyl-3-oxo-5^2,5^3-dihydro-1^1H,5^1H-11-oxa-4-aza-5(2,1)-benzo[d]imidazola-2(2,4)-pyridina-1(4,5)-pyrazolacycloundecaphane-5^6-yl)methyl)piperazin-1-yl)ethyl)phenyl)piperidine-2,6-dione]	–
